Values of other authors as cited in US9902702B2, “Spirocycloheptanes as inhibitors of rock” (BRISTOL-MYERS SQUIBB COMPANY, priority 2014, dated 2018).
Read-outs that look alike come from different tables or passages of the source.

Columns and labels:
[1] = test system: neointimal formation; conditions: rats, balloon injury model; cited from earlier work
[2] = test system: congestive heart failure in Dahl salt-sensitive rats; conditions: cited from earlier work
[3] = test system: spontaneously hypertensive rat, renal hypertensive rat and deoxycortisone acetate salt hypertensive rat models; conditions: cited from earlier work
[4] = test system: IL-1 beta-induced coronary stenosis; conditions: porcine model, long term treatment; cited from earlier work
[5] = test system: rat stroke model; conditions: cited from earlier work

SMILES | neointimal formation [1] | ventricular hypertrophy, fibrosis and function [2] | blood pressure ([3]; control rats) | blood pressure ([3]; three rat models of hypertension) | coronary constrictive remodeling [4] | coronary stenosis [4] | infarct size and neurologic deficit [5]
C[C@@H](N)[C@H]1CC[C@H](C(=O)Nc2ccncc2)CC1 [Example Y-27632] | inhibited neointimal formation | improve ventricular hypertrophy, fibrosis and function | only a minor effect on blood pressure | significantly decrease blood pressure |  |  | 
O=S(=O)(c1cccc2cnccc12)N1CCCNCC1 [fasudil] |  |  |  |  | promote a regression of coronary constrictive remodeling | progressively reduce coronary stenosis | reduce both the infarct size and neurologic deficit
